# How the values were obtained:
# [1] = Standing systolic blood pressure and heart rate in normal volunteers during transdermal GTN, with oral folate or placebo; assay type: in vivo, human; conditions: acute transdermal GTN 0.6 mg/hr, 3 hours after initial patch application, both placebo and folate groups
# Description: (§1) Normal volunteers (n=20) were randomized in a double bind, placebo-controlled fashion to either oral folate (5 mg per day) or placebo. After 1 week of this double-blind therapy, subjects returned to the laboratory. At that time, measures of standing systolic blood pressure and heart rate were recorded. Subsequently, measurements of forearm blood flow were made at rest and in response to sublingual nitroglycerin (0.6 mg). […] A Randomized Double-blind, Placebo-controlled Study, J Cardiovasc Pharm. 1999;34:645-659.
# (§2) Subsequently all subjects all received transdermal GTN (0.6 mg/hr). Standing heart rate and blood pressure responses were repeated 3 hours after initial patch application. Subjects were discharged from the laboratory with instructions to take transdermal GTN continuously for the next 5 to 7 days, changing the patch each day at 0800 hours. After 5 to 7 days, subjects returned to the laboratory where measures of standing systolic blood pressure and heart rate as well as forearm blood flow were repeated.
# [2] = Forearm blood flow by strain gauge plethysmography at rest and in response to sublingual nitroglycerin; assay type: in vivo, human; conditions: sublingual GTN 0.6 mg, before continuous GTN therapy, both groups
# Description: as §1, §2
smiles,measurement,setting,value
"O=[N+]([O-])OCC(CO[N+](=O)[O-])O[N+](=O)[O-] [GTN, glyceryl trinitrate]",heart rate after acute administration,[1],significant increase
same,systolic blood pressure after acute administration,[1],significant fall
same,forearm blood flow after sublingual administration,[2],"similar, significant increase"

# From patent US6537992B2, “Regulation of organic nitrate tolerance” (priority 2001, dated 2003)
